{"source": "PubChem BioAssay AID2060601", "about": "(Molecular Pharmacology Branch, DTP, NCI, 2025)", "tested_on": "874868-142-R-J2-PDC complex spheroids, growth % test/control", "experiment": "Anticancer human tumor 874868-142-R-J2-PDC patient-derived head and neck squamous carcinoma cell line growth inhibition [CLK]", "conditions": "for IC50: curve of first compound; for viability, T/C: stronger effect = lower value", "summary_of_the_method": "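Patient-derived tumor cells grown as complex spheroids with HUVEC endothelial cells and mesenchymal stem cells, treated with drug combinations. Concentrations descend in half-log steps from near clinical Cmax, or from 10 microM if Cmax unknown.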", "key": {"[1]": {"conditions": "second compound 0.0316 µM, first compound 0.0316 µM"}, "[2]": {"conditions": "second compound 0.0316 µM, first compound 0.1 µM"}, "[3]": {"conditions": "second compound 0.0316 µM, first compound 0.316 µM"}, "[4]": {"conditions": "second compound 0.0316 µM, first compound 1 µM"}, "[5]": {"conditions": "second compound 0.0316 µM, first compound 3.16 µM"}, "[6]": {"conditions": "second compound 0.0316 µM, first compound 10 µM"}, "[7]": {"conditions": "second compound 0.1 µM, first compound 0.0316 µM"}, "[8]": {"conditions": "second compound 0.1 µM, first compound 0.1 µM"}, "[9]": {"conditions": "second compound 0.1 µM, first compound 0.316 µM"}, "[10]": {"conditions": "second compound 0.1 µM, first compound 1 µM"}, "[11]": {"conditions": "second compound 0.1 µM, first compound 3.16 µM"}, "[12]": {"conditions": "second compound 0.1 µM, first compound 10 µM"}, "[13]": {"conditions": "second compound 0.316 µM, first compound 0.0316 µM"}, "[14]": {"conditions": "second compound 0.316 µM, first compound 0.1 µM"}, "[15]": {"conditions": "second compound 0.316 µM, first compound 0.316 µM"}, "[16]": {"conditions": "second compound 0.316 µM, first compound 1 µM"}, "[17]": {"conditions": "second compound 0.316 µM, first compound 3.16 µM"}, "[18]": {"conditions": "second compound 0.316 µM, first compound 10 µM"}, "[19]": {"conditions": "second compound 1 µM, first compound 0.0316 µM"}, "[20]": {"conditions": "second compound 1 µM, first compound 0.1 µM"}, "[21]": {"conditions": "second compound 1 µM, first compound 0.316 µM"}, "[22]": {"conditions": "second compound 1 µM, first compound 1 µM"}, "[23]": {"conditions": "second compound 1 µM, first compound 3.16 µM"}, "[24]": {"conditions": "second compound 1 µM, first compound 10 µM"}, "[25]": {"conditions": "second compound 3.16 µM, first compound 0.0316 µM"}, "[26]": {"conditions": "second compound 3.16 µM, first compound 0.1 µM"}, "[27]": {"conditions": "second compound 3.16 µM, first compound 0.316 µM"}, "[28]": {"conditions": "second compound 3.16 µM, first compound 1 µM"}, "[29]": {"conditions": "second compound 3.16 µM, first compound 3.16 µM"}, "[30]": {"conditions": "second compound 3.16 µM, first compound 10 µM"}, "[31]": {"conditions": "second compound 10 µM, first compound 0.0316 µM"}, "[32]": {"conditions": "second compound 10 µM, first compound 0.1 µM"}, "[33]": {"conditions": "second compound 10 µM, first compound 0.316 µM"}, "[34]": {"conditions": "second compound 10 µM, first compound 1 µM"}, "[35]": {"conditions": "second compound 10 µM, first compound 3.16 µM"}, "[36]": {"conditions": "second compound 10 µM, first compound 10 µM"}}}
{"molecule": "COc1cccc2c1C(=O)c1c(O)c3c(c(O)c1C2=O)CC(O)(C(=O)CO)CC3OC1CC(N)C(O)C(C)O1", "note": "(centres undefined) + CN1CCN(c2cc(C(=O)Nc3cc4cc(-c5cnn(C)c5)ccc4cn3)ccn2)CC1;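 further: spheroids exposed to the compounds for 7 days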;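 on viability, T/C: 100% = DMSO vehicle control viability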", "values": [{"measurement": "IC50", "setting": "second compound 0.0316 µM", "value": 87.3, "unit": "nM"}, {"measurement": "IC50", "setting": "second compound 0.1 µM", "value": 46.7, "unit": "nM"}, {"measurement": "IC50", "setting": "second compound 0.316 µM", "value": "< 31.6", "unit": "nM"}, {"measurement": "IC50", "setting": "second compound 1 µM", "value": "< 31.6", "unit": "nM"}, {"measurement": "IC50", "setting": "second compound 3.16 µM", "value": "< 31.6", "unit": "nM"}, {"measurement": "IC50", "setting": "second compound 10 µM", "value": "< 31.6", "unit": "nM"}, {"measurement": "viability, T/C", "setting": "[1]", "value": 63.8, "unit": "%"}, {"measurement": "viability, T/C", "setting": "[2]", "value": 45.1, "unit": "%"}, {"measurement": "viability, T/C", "setting": "[3]", "value": 28.2, "unit": "%"}, {"measurement": "viability, T/C", "setting": "[4]", "value": 1.26, "unit": "%"}, {"measurement": "viability, T/C", "setting": "[5]", "value": 0.13, "unit": "%"}, {"measurement": "viability, T/C", "setting": "[6]", "value": 0.12, "unit": "%"}, {"measurement": "viability, T/C", "setting": "[7]", "value": 55.6, "unit": "%"}, {"measurement": "viability, T/C", "setting": "[8]", "value": 38.7, "unit": "%"}, {"measurement": "viability, T/C", "setting": "[9]", "value": 20.3, "unit": "%"}, {"measurement": "viability, T/C", "setting": "[10]", "value": 1.08, "unit": "%"}, {"measurement": "viability, T/C", "setting": "[11]", "value": 0.17, "unit": "%"}, {"measurement": "viability, T/C", "setting": "[12]", "value": 0.22, "unit": "%"}, {"measurement": "viability, T/C", "setting": "[13]", "value": 14.6, "unit": "%"}, {"measurement": "viability, T/C", "setting": "[14]", "value": 12.6, "unit": "%"}, {"measurement": "viability, T/C", "setting": "[15]", "value": 3.13, "unit": "%"}, {"measurement": "viability, T/C", "setting": "[16]", "value": 0.26, "unit": "%"}, {"measurement": "viability, T/C", "setting": "[17]", "value": 0.13, "unit": "%"}, {"measurement": "viability, T/C", "setting": "[18]", "value": 0.18, "unit": "%"}, {"measurement": "viability, T/C", "setting": "[19]", "value": 0.21, "unit": "%"}, {"measurement": "viability, T/C", "setting": "[20]", "value": 0.85, "unit": "%"}, {"measurement": "viability, T/C", "setting": "[21]", "value": 0.41, "unit": "%"}, {"measurement": "viability, T/C", "setting": "[22]", "value": 0.34, "unit": "%"}, {"measurement": "viability, T/C", "setting": "[23]", "value": 0.12, "unit": "%"}, {"measurement": "viability, T/C", "setting": "[24]", "value": 0.14, "unit": "%"}, {"measurement": "viability, T/C", "setting": "[25]", "value": 0.22, "unit": "%"}, {"measurement": "viability, T/C", "setting": "[26]", "value": 0.15, "unit": "%"}, {"measurement": "viability, T/C", "setting": "[27]", "value": 2.26, "unit": "%"}, {"measurement": "viability, T/C", "setting": "[28]", "value": 0.14, "unit": "%"}, {"measurement": "viability, T/C", "setting": "[29]", "value": 0.21, "unit": "%"}, {"measurement": "viability, T/C", "setting": "[30]", "value": 0.12, "unit": "%"}, {"measurement": "viability, T/C", "setting": "[31]", "value": 0.07, "unit": "%"}, {"measurement": "viability, T/C", "setting": "[32]", "value": 0.94, "unit": "%"}, {"measurement": "viability, T/C", "setting": "[33]", "value": 0.15, "unit": "%"}, {"measurement": "viability, T/C", "setting": "[34]", "value": 0.12, "unit": "%"}, {"measurement": "viability, T/C", "setting": "[35]", "value": 0.14, "unit": "%"}, {"measurement": "viability, T/C", "setting": "[36]", "value": 0.67, "unit": "%"}]}
{"molecule": "CCCS(=O)(=O)Nc1ccc(F)c(C(=O)c2c[nH]c3ncc(-c4ccc(Cl)cc4)cc23)c1F", "note": "+ CNC(=O)c1ccc(Nc2nc(OC3CCCC3)c3c(-c4ccc5nc(C)oc5c4)c[nH]c3n2)c(OC)c1", "values": [{"measurement": "IC50", "setting": "second compound 0.0316 µM", "value": "> 10000", "unit": "nM"}, {"measurement": "IC50", "setting": "second compound 0.1 µM", "value": "> 10000", "unit": "nM"}, {"measurement": "IC50", "setting": "second compound 0.316 µM", "value": "> 10000", "unit": "nM"}, {"measurement": "IC50", "setting": "second compound 1 µM", "value": "< 31.6", "unit": "nM"}, {"measurement": "IC50", "setting": "second compound 3.16 µM", "value": "< 31.6", "unit": "nM"}, {"measurement": "IC50", "setting": "second compound 10 µM", "value": "< 31.6", "unit": "nM"}, {"measurement": "viability, T/C", "setting": "[1]", "value": 119, "unit": "%"}, {"measurement": "viability, T/C", "setting": "[2]", "value": 122, "unit": "%"}, {"measurement": "viability, T/C", "setting": "[3]", "value": 133, "unit": "%"}, {"measurement": "viability, T/C", "setting": "[4]", "value": 143, "unit": "%"}, {"measurement": "viability, T/C", "setting": "[5]", "value": 139, "unit": "%"}, {"measurement": "viability, T/C", "setting": "[6]", "value": 87.8, "unit": "%"}, {"measurement": "viability, T/C", "setting": "[7]", "value": 101, "unit": "%"}, {"measurement": "viability, T/C", "setting": "[8]", "value": 104, "unit": "%"}, {"measurement": "viability, T/C", "setting": "[9]", "value": 110, "unit": "%"}, {"measurement": "viability, T/C", "setting": "[10]", "value": 144, "unit": "%"}, {"measurement": "viability, T/C", "setting": "[11]", "value": 140, "unit": "%"}, {"measurement": "viability, T/C", "setting": "[12]", "value": 84.6, "unit": "%"}, {"measurement": "viability, T/C", "setting": "[13]", "value": 62.2, "unit": "%"}, {"measurement": "viability, T/C", "setting": "[14]", "value": 59.6, "unit": "%"}, {"measurement": "viability, T/C", "setting": "[15]", "value": 59.6, "unit": "%"}, {"measurement": "viability, T/C", "setting": "[16]", "value": 61.8, "unit": "%"}, {"measurement": "viability, T/C", "setting": "[17]", "value": 67.9, "unit": "%"}, {"measurement": "viability, T/C", "setting": "[18]", "value": 53.2, "unit": "%"}, {"measurement": "viability, T/C", "setting": "[19]", "value": 40.9, "unit": "%"}, {"measurement": "viability, T/C", "setting": "[20]", "value": 38.2, "unit": "%"}, {"measurement": "viability, T/C", "setting": "[21]", "value": 46.8, "unit": "%"}, {"measurement": "viability, T/C", "setting": "[22]", "value": 54.9, "unit": "%"}, {"measurement": "viability, T/C", "setting": "[23]", "value": 49.3, "unit": "%"}, {"measurement": "viability, T/C", "setting": "[24]", "value": 45.3, "unit": "%"}, {"measurement": "viability, T/C", "setting": "[25]", "value": 41.2, "unit": "%"}, {"measurement": "viability, T/C", "setting": "[26]", "value": 38, "unit": "%"}, {"measurement": "viability, T/C", "setting": "[27]", "value": 41.8, "unit": "%"}, {"measurement": "viability, T/C", "setting": "[28]", "value": 38.8, "unit": "%"}, {"measurement": "viability, T/C", "setting": "[29]", "value": 53.8, "unit": "%"}, {"measurement": "viability, T/C", "setting": "[30]", "value": 32, "unit": "%"}, {"measurement": "viability, T/C", "setting": "[31]", "value": 38.8, "unit": "%"}, {"measurement": "viability, T/C", "setting": "[32]", "value": 44.1, "unit": "%"}, {"measurement": "viability, T/C", "setting": "[33]", "value": 50.2, "unit": "%"}, {"measurement": "viability, T/C", "setting": "[34]", "value": 37.6, "unit": "%"}, {"measurement": "viability, T/C", "setting": "[35]", "value": 52.4, "unit": "%"}, {"measurement": "viability, T/C", "setting": "[36]", "value": 45.2, "unit": "%"}]}
